Data on one compound can be found in EP1466597A1, “Use of dha esters to control or prevent cardiovascular diseases” (Clinigenetics, priority 2003, dated 2004).

For test [1], the system named is PMA stimulated THP1 cells. The experiment in a line: Inhibition of lipoprotein (Cy3-oxLDL) uptake / lipid vesicle accumulation in macrophage foam cells. Type of test: cell-based. The following applies: PMA-differentiated THP1 cells, 2 hours with cy3 labeled oxLDL (1 µg/ml), fluorescence microscopy. The method, then: The THP-1 cell line from the European Collection of Cell Cultures, (ECACC, Wilshire, UK) were selected to generate a cellular model that mimics the differentiation and the growth of a foam cell. Typically, the cells (5.10^5 cells/ml) were maintained and grown in RPMI-1640, 10% FBS, 100 Unit/ml penicillin and 100 µg/ml streptomycin, […] L-Glutamine (Biowhittaker, Verviers , Belgium) in 37°C, 5% CO2 incubator. Medium was replaced every 2-3 days.
Human LDL were isolated from fresh plasma using a two steps KBr gradient ultracentrifugation (Leger et al., Free Rad. Res., 2002, 36, 127-142), LDL were dialyzed against NaCl 150 mM, sodium phosphate 10 mM, DTPA 10 µM (pH 7,4) for 24 hours. […]
Finally, lipoproteins were also characterized by their electrophoretic mobility. […] At the end of the labeling procedure, Cy3-OxLDL was extensively dialyzed and labeling efficiency was evaluated by measuring the absorbance at 548 nm.
To induce differentiation into macrophages, 1.5 10^5 cells/wells were plated in 96-well plates in culture medium supplemented with 10^-7 M of phorbol 12-myristate-13-acetate (Sigma) for 24 hours at 37°C, 5% CO2. […] After 2 washes with PBS, images of Cy-3 oxLDL uptake were captured using a fluorescence microscope coupled with a CCD camera. Each image was analyzed and quantified using QFluoro Software (Leica).

The next test has as its system thromboxane A2. The note with it: described in EP 0 623 019; cited from earlier work.

Entries after “also recorded” stand apart in the source; their conditions may differ.

Turning to `CC/C=C\C/C=C\C/C=C\C/C=C\C/C=C\C/C=C\CCC(=O)O[C@H](CO)COP(=O)([O-])OCC[N+](C)(C)C` [lyso-PCDHA, 1-lyso, 2-DHA-glycero-phosphocholine], in test [1], the “accumulation of lipid vesicles in macrophage / formation of foam cells” value was “can block the accumulation of lipid rich vesicles in macrophage and prevent the formation of foam cell; also recorded: Dose dependent effect for the inhibition of lipid vesicles in macrophage cells; also recorded: can inhibit the accumulation of lipid vesicles in macrophage and block the formation of foam cells”. Further, the platelet aggregation inhibition entry in the test on thromboxane A2 is “platelet aggregation inhibitors”.
